Data on four molecules can be found in ChEMBL document CHEMBL1153078, “Design and synthesis of acetamido tri- and tetra-hydroxyazepanes: potent and selective beta-N-acetylhexosaminidase inhibitors” (Bioorg Med Chem, 2009).

Active and inactive are the calls of the source. The calls are words filed in the database; no cut-off is given here.

The term inhibition denotes the drop in the measured response relative to a control, in per cent. The Ki is the dissociation constant of the complex between target and ligand, obtained from inhibition or displacement. A lower Ki goes with higher affinity.

Assay [1] concerns Aspergillus niger. Description: Inhibition of Aspergillus niger amyloglucosidase at 1 mM.
Assay [2] has as its system Canavalia ensiformis. As to the kind of experiment: Inhibition of jack bean alpha-mannosidase at 1 mM.
Assay [3] is described as follows: Inhibition of bovine liver beta-N-acetylglucosaminidase. More on the design: species or system Bos taurus.
In assay [4] the test system is Aspergillus oryzae. Description: Inhibition of Aspergillus oryzea beta-xylosidase at 1 mM.
Assay [5] is filed under the species Bos taurus. As to the kind of experiment: Inhibition of bovine liver beta-N-acetylglucosaminidase at 1 mM.
In assay [6] the test system is Canavalia ensiformis. Description: Inhibition of jack bean beta-N-acetylglucosaminidase at 240 uM.
For assay [7], the target named is Beta-galactosidase (Escherichia coli) (UniProt Q8VNN2). Description: Inhibition of Escherichia coli beta-galactosidase at 1 mM.
Chain of Beta-galactosidase (Escherichia coli) (Q8VNN2 whole entry, looked up): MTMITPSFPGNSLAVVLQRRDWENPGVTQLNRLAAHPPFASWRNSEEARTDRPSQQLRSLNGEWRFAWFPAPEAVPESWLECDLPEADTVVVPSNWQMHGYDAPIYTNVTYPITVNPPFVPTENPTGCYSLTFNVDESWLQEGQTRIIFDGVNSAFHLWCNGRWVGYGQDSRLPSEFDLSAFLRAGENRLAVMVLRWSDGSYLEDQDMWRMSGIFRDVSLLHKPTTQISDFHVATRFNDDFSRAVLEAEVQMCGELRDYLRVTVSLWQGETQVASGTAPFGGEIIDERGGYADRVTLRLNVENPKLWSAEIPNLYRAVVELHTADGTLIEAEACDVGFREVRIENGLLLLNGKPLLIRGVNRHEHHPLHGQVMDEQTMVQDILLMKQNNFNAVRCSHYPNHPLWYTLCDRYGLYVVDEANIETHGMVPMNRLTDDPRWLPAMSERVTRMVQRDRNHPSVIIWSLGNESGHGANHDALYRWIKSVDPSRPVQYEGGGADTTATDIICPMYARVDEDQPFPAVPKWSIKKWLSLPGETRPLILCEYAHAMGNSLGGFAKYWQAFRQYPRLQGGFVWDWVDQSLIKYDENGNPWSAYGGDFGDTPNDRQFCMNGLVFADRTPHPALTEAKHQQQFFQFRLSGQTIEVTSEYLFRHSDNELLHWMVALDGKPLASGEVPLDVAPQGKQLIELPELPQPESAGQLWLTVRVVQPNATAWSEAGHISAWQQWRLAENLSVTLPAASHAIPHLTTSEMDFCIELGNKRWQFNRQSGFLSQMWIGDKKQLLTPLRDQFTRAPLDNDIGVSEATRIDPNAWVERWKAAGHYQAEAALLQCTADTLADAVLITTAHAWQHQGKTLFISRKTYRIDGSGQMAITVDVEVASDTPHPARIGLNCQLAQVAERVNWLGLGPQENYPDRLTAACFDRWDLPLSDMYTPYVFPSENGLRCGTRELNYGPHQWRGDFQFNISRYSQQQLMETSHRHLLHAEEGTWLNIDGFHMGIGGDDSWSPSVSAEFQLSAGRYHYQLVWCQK
Assay [8] relates to Saccharomyces cerevisiae. Description: Inhibition of yeast alpha-glucosidase at 1 mM.
The species named for assay [9] is Bos taurus. Description: Inhibition of bovine liver beta-N-acetylglucosaminidase at 240 uM.
Assay [10] has as its target T1, Beta-galactosidase (Aspergillus oryzae) (UniProt Q2U7N3).
T1 sequence (whole entry): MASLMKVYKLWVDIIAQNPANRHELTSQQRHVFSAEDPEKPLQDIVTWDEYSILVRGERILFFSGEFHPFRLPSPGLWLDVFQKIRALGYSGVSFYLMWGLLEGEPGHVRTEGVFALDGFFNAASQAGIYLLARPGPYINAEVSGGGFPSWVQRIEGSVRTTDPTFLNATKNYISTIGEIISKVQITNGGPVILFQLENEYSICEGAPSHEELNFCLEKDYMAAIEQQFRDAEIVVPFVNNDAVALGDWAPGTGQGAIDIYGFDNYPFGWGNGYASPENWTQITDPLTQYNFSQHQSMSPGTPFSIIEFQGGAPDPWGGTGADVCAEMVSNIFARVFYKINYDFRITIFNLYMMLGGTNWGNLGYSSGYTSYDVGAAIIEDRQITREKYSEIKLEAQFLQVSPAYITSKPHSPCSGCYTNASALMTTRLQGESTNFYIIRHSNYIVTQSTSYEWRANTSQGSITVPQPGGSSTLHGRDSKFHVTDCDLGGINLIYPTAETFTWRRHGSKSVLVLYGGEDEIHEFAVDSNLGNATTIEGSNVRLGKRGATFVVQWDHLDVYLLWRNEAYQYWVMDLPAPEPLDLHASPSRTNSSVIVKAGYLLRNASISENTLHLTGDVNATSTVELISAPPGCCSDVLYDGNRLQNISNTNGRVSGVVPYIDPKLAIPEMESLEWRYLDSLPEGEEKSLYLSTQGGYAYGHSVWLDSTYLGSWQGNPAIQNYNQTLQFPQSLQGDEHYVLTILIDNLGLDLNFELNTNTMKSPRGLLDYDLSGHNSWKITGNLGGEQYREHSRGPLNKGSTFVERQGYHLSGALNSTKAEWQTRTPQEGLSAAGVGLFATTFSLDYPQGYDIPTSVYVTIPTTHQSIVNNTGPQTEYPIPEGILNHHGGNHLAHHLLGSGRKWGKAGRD
Description: Inhibition of Aspergillus oryzea beta-galactosidase at 1 mM.

Assay [11] in a line: Inhibition of jack bean beta-N-acetylglucosaminidase. Set-up: species or system Canavalia ensiformis.
The test system of assay [12] is Canavalia ensiformis. Description: Inhibition of jack bean beta-N-acetylglucosaminidase at 1 mM.
The target in assay [13] is Alpha-galactosidase (Coffea arabica) (UniProt Q42656). Description: Inhibition of coffee bean alpha-galactosidase at 1 mM.
Chain of Alpha-galactosidase (Coffea arabica) (Q42656 16-378 limits assumed): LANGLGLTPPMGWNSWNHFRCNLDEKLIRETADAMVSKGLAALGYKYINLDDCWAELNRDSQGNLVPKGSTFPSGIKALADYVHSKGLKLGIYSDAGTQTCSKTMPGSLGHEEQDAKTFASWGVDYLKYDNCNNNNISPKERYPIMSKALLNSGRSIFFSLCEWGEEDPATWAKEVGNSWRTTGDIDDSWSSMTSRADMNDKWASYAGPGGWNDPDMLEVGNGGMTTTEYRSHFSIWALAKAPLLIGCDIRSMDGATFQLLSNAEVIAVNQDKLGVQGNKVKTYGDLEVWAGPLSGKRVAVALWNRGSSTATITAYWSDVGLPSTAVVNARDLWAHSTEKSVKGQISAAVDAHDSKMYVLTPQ
Assay [14] concerns Prunus dulcis. Description: Inhibition of almond beta-glucosidase at 1 mM.
The test system of assay [15] is Helix pomatia. Description: Inhibition of snail beta-mannosidase at 1 mM.
The target in assay [16] is T2, Tissue alpha-L-fucosidase (Bos taurus) (UniProt Q2KIM0).
T2 sequence (whole entry): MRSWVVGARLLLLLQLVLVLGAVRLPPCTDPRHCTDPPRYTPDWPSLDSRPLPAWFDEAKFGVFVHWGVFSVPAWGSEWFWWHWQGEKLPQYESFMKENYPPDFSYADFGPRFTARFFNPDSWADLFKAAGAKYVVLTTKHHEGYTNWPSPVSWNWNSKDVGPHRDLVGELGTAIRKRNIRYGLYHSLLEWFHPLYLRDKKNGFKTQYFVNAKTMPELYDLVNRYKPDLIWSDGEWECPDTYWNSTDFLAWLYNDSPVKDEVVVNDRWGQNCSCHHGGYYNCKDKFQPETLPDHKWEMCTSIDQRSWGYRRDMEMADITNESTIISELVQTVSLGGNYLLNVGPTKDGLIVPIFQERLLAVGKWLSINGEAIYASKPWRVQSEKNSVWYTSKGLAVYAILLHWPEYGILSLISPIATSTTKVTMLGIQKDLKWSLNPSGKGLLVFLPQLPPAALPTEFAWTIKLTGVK
Description: Inhibition of bovine epididymis alpha-L-fucosidase at 1 mM.

Assay [17] concerns Oryza sativa. As to the kind of experiment: Inhibition of rice alpha-glucosidase at 1 mM.

For the molecule `CC(=O)N[C@H]1CNC[C@H](O)[C@@H](O)[C@@H]1O`, the inhibition in assay [1] is 19%; in assay [5], 99%; in assay [6], 22%; in assay [9], 22%; in [12], 99%; in assay [16], 28%. The inhibition result in [2], in [4], in assay [7], in [8], in [10] and in assay [13] was “inactive” throughout. Also, the inhibition result in assay [14], in assay [15] and in assay [17] was “inactive” in each case. The Ki in [3] is 700 nM; in assay [11] it was 400 nM.
For the molecule `CC(=O)N[C@@H]1[C@@H](O)[C@H](O)[C@@H](CO)NC[C@H]1O`, the inhibition entry in assay [1], in assay [4], in [7], in assay [8], in [10] and in assay [13] was “inactive” throughout. The inhibition result in [14], in [15], in assay [16] and in assay [17] was “inactive” each time. Moreover, the inhibition in [2] amounted to 25%; in assay [5], 99%; in assay [12], 98%. Also, the inhibition constant (Ki) in assay [3] was determined as 600 nM; in assay [11], 500 nM.
`CC(=O)N[C@@H]1CNC[C@H](O)[C@@H](O)[C@@H]1O`: the inhibition entry in assay [1], in assay [2], in [4], in assay [7], in assay [8] and in assay [10] was “inactive” each time. Besides, the inhibition result in [13], in assay [14], in [15], in assay [16] and in assay [17] was “inactive” each time. For the same molecule, the inhibition in assay [5] turned out to be 68%; in assay [12], 93%.
As to `CC(=O)N[C@H]1CN[C@H](CO)[C@@H](O)[C@H](O)[C@@H]1O`, the inhibition entry in assay [1], in assay [2], in assay [4], in assay [7], in assay [8] and in assay [10] was “inactive” throughout. For the same molecule, the inhibition result in assay [13], in assay [14], in [15], in [16] and in [17] was “inactive” throughout. Besides, the inhibition stood at 74% in [5] and 88% in assay [12]. The same molecule showed an inhibition constant Ki in assay [11] of 30000 nM.
